# Data: ChEMBL document CHEMBL4043112, “Recent synthetic and medicinal perspectives of tryptanthrin” (Bioorg Med Chem, 2017)
# Counter-ions that a name gives are not always drawn.
# Key:
# Malassezia furfur = test: Antifungal activity against Malassezia furfur after 2 to 4 days by agar plate dilution method; type: functional
# Staphylococcus aureus = test: Antibacterial activity against methicillin resistant Staphylococcus aureus after 24 hrs by agar plate dilution method; type: functional
# [1] = molecular target: ATP-dependent translocase ABCB1 (Homo sapiens, UniProt P08183); test: Inhibition of MDR1 in human MCF7/ADR cells assessed as potentiation of verapamil-induced cytotoxicity by measuring cell growth (reference value: 78.2%); type: cell-based; parameters: scale not given: the % may be the effect or the level left
# Sequence of ATP-dependent translocase ABCB1 (P08183 whole entry): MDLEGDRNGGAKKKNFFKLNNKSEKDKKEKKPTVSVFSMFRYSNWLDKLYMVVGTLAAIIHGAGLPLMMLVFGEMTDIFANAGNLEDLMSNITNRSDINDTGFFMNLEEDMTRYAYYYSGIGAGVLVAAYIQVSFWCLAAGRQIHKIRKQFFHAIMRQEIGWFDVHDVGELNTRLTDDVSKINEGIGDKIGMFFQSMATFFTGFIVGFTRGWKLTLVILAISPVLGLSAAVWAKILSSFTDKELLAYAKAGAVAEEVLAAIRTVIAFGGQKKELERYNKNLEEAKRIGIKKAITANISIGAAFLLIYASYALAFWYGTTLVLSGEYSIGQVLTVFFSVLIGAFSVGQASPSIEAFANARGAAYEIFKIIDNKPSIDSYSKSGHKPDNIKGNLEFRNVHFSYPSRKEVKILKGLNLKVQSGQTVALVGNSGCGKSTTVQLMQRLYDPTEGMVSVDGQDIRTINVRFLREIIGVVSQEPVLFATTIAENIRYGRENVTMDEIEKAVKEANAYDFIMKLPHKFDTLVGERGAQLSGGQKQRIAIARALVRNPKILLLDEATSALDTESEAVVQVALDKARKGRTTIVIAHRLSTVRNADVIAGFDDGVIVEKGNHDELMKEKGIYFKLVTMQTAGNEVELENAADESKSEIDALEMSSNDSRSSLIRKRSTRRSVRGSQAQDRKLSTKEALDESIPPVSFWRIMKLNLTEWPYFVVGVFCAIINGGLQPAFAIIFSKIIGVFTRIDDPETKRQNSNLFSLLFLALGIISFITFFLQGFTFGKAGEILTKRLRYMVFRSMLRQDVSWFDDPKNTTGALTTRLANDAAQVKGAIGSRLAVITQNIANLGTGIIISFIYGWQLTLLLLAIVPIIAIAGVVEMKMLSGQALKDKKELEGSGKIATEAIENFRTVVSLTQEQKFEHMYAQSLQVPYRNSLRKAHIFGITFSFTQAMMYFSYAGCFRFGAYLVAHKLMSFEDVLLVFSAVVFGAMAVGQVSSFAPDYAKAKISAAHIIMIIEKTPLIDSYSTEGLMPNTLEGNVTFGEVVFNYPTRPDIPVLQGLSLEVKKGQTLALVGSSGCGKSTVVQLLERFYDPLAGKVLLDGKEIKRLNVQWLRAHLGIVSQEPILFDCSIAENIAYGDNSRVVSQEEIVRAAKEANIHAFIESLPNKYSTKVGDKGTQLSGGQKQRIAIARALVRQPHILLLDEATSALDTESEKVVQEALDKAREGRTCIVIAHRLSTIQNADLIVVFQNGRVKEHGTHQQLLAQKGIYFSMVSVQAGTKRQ
# MCF7 [2] = test: Cytotoxicity against human wild-type MCF7 cells after 72 hrs; type: functional, cell-based; settings: MCF7, 72 h
# [3] = molecular target: Indoleamine 2,3-dioxygenase 1 (Homo sapiens, UniProt P14902); test: Inhibition of IDO-1 (unknown origin)
# Sequence of Indoleamine 2,3-dioxygenase 1 (P14902 whole entry): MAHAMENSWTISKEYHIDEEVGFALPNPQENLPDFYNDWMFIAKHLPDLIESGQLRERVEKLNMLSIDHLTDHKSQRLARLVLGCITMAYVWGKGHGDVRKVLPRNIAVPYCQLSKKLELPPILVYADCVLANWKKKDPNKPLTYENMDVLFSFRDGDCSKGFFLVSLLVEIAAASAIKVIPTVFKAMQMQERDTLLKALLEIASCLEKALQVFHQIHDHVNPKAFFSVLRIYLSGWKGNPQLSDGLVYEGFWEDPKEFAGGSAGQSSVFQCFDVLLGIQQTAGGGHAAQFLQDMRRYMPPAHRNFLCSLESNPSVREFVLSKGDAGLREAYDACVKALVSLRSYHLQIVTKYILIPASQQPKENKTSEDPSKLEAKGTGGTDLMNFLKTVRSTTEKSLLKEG
# K562 [4] = test: Induction of apoptosis in human K562 cells assessed as late apoptotic cells at 6.25 ug/ml by Annexin V/propidium iodide staining-based flow cytometry; type: functional
# HL-60 [5] = test: Antiproliferative activity against human HL60 cells after 48 hrs; type: functional, cell-based
# HL-60 [6] = test: Antiproliferative activity against human HL60 cells after 24 hrs; type: functional, cell-based; settings: HL-60, 24 h
# [7] = molecular target: T1, Polyunsaturated fatty acid 5-lipoxygenase (Homo sapiens, UniProt P09917); test: Inhibition of 5-LO in LPS-stimulated human neutrophils by HPLC analysis
# T1 sequence (P09917 whole entry): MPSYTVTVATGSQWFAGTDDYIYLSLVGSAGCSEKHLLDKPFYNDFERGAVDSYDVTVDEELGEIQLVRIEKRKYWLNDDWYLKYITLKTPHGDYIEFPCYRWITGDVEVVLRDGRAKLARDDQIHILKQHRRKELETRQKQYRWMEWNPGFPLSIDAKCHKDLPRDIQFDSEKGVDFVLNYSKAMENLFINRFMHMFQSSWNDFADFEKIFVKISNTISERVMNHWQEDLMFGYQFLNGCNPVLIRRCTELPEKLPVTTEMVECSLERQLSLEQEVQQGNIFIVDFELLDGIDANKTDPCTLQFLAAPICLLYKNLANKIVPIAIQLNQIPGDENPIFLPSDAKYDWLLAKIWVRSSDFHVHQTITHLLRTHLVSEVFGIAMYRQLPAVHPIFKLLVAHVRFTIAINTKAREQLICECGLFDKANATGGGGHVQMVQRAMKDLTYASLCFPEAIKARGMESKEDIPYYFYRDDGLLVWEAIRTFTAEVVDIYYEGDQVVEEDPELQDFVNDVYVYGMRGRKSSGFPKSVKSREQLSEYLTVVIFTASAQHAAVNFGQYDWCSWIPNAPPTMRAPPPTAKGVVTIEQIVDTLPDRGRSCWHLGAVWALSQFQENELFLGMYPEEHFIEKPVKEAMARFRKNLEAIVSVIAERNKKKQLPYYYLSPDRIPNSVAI
# Rattus norvegicus [8] = test: Anti-inflammatory activity in Wistar Han rat assessed as reduction of carrageenan-induced pleural LTB4 levels at 10 mg/kg, po administered 1 hr prior to carrageenan challenge by HPLC analysis; type: functional
# [9] = Antiproliferative activity against spleen cells from SBP-immunized mouse assessed as fluorescence intensity at 10 uM after 3 days by Alamar blue dye-based method (reference value: 2781 +/- 59I); type: functional, Spleen cell
# [10] = Antiproliferative activity against spleen cells from SBP-immunized mouse assessed as fluorescence intensity at 5 uM after 3 days by Alamar blue dye-based method (reference value: 2781 +/- 59I); type: functional, Spleen cell
# Rattus norvegicus [11] = test: Anti-inflammatory activity in Wistar Han rat assessed as reduction in carrageenan-induced increase in infiltrating cells at 10 mg/kg, po administered 1 hr prior to carrageenan challenge by vital trypan blue staining-based microscopic method; type: functional
# K562 [12] = test: Induction of apoptosis in human K562 cells assessed as late apoptotic cells at 25 ug/ml by Annexin V/propidium iodide staining-based flow cytometry; type: functional
# [13] = Inhibition of PMA-induced HGF production in HDF at 0.1 mg/ml after 24 hrs by ELISA; type: functional; settings: Homo sapiens
# K562 [14] = test: Antiproliferative activity against human K562 cells after 48 hrs by MTT staining-based method; type: functional, cell-based; settings: K562, 48 h
# K562 [15] = test: Antiproliferative activity against human K562 cells after 48 hrs; type: functional, cell-based; settings: K562, 48 h
# Rattus norvegicus [16] = test: Anti-inflammatory activity in Wistar Han rat assessed as reduction in carrageenan-induced exudate volume at 10 mg/kg, po administered 1 hr prior to carrageenan challenge; type: functional
# K562 [17] = test: Induction of apoptosis in human K562 cells assessed as late apoptotic cells at 12.5 ug/ml by Annexin V/propidium iodide staining-based flow cytometry; type: functional
# NCI/ADR-RES [18] = test: Cytotoxicity against human MCF7/ADR cells after 72 hrs; type: functional, cell-based
# Rattus norvegicus [19] = test: Anti-inflammatory activity in Wistar Han rat assessed as reduction of carrageenan-induced PGE2 levels at 10 mg/kg, po administered 1 hr prior to carrageenan challenge by radioimmunoassay; type: functional
# MOLT-4 [20] = test: Antiproliferative activity against human MOLT4 cells after 24 hrs; type: functional, cell-based; settings: MOLT-4, 24 h
# K562 [21] = test: Antiproliferative activity against human K562 cells after 24 hrs; type: functional, cell-based; settings: K562, 24 h
# MOLT-4 [22] = test: Antiproliferative activity against human MOLT4 cells after 48 hrs; type: functional, cell-based; settings: MOLT-4, 48 h
# [23] = Inhibition of EGF-induced HGF production in HDF at 2 mg/ml after 72 hrs by ELISA; type: functional; settings: Homo sapiens
# [24] = molecular target: T1, Polyunsaturated fatty acid 5-lipoxygenase; test: Inhibition of 5-LO in fMLP-stimulated human neutrophils by HPLC analysis
# NCI/ADR-RES [25] = test: Cytotoxicity against human MCF7/ADR cells assessed as inhibition of cell proliferation at 10^-6 M after 5 days by MTT assay; type: functional; settings: 120 h
# Homo sapiens [26] = organism: Homo sapiens; test: Inhibition of human DNA topoisomerase 2 ATPase activity at 200 mM by Topo-2 ATPase assay
# Homo sapiens [27] = organism: Homo sapiens; test: Inhibition of human DNA topoisomerase 2 ATPase activity at 300 mM by Topo-2 ATPase assay
# Homo sapiens [28] = organism: Homo sapiens; test: Inhibition of human DNA topoisomerase 2 ATPase activity at 400 mM by Topo-2 ATPase assay
# MCF7 [29] = test: Cytotoxicity against human wild-type MCF7 cells assessed as cell growth at 3 mM after 72 hrs relative to control; type: functional; settings: MCF7, 72 h, read-out: Activity
# NCI/ADR-RES [30] = test: Cytotoxicity against human MCF7/ADR cells assessed as cell growth at 3 mM after 72 hrs relative to control; type: functional; settings: read-out: Activity
# Homo sapiens [31] = organism: Homo sapiens; test: Inhibition of human DNA topoisomerase 2-mediated decatenation of kinetoplast DNA at […] by kinetoplast DNA decatenation assay
structure (smiles),measurement,setting,value
O=C1c2ccccc2-n2c1nc1ccc([N+](=O)[O-])cc1c2=O,MIC,Malassezia furfur,> 160 µg/mL
same,MIC,Staphylococcus aureus,> 100 µg/mL
COc1ccc(CCN(C)CCCC(C#N)(c2ccc(OC)c(OC)c2)C(C)C)cc1OC (configuration not stated),Activity,[1],18.1%
Nc1ccc2nc3n(c(=O)c2c1)-c1ccccc1C3=O,MIC,Malassezia furfur,20 µg/mL
same,MIC,Staphylococcus aureus,2 µg/mL
O=C1c2ccccc2-n2c1nc1ccccc1c2=O [TRYPTANTHRIN],IC50,MCF7 [2],0.58 to 15.5 µM
same,IC50,[3],499 µM
same,Activity,K562 [4],21.9%
same,IC50,HL-60 [5],2 to 20000 µM
same,IC50,HL-60 [6],5 µM
same,IC50,[7],0.2 to 0.6 µM
same,inhibition in vivo at 10 mg/kg,Rattus norvegicus [8],46%
same,Flu intensity,[9],2740
same,MIC,Malassezia furfur,4 µg/mL
same,Flu intensity,[10],2826
same,inhibition in vivo at 10 mg/kg,Rattus norvegicus [11],41%
same,Activity,K562 [12],52.2%
same,inhibition at 100 µg/mL,[13],70%
same,IC50,K562 [14],8.8 µg/mL
same,IC50,K562 [15],5 µM
same,inhibition in vivo at 10 mg/kg,Rattus norvegicus [16],80%
same,Activity,K562 [17],33.4%
same,IC50,NCI/ADR-RES [18],0.03 to 10 µM
same,inhibition in vivo at 10 mg/kg,Rattus norvegicus [19],42%
same,IC50,MOLT-4 [20],10 µM
same,IC50,K562 [21],15 µM
same,IC50,MOLT-4 [22],8 µM
same,inhibition at 2000 µg/mL,[23],70%
same,MIC,Staphylococcus aureus,0.5 µg/mL
same,IC50,[24],0.2 to 0.6 µM
O=C1c2cc(Br)ccc2-n2c1nc1ccccc1c2=O,MIC,Malassezia furfur,2.5 µg/mL
same,MIC,Staphylococcus aureus,0.1 µg/mL
COc1cccc2c1C(=O)c1c(O)c3c(c(O)c1C2=O)C[C@@](O)(C(=O)CO)C[C@@H]3O[C@H]1C[C@H](N)[C@H](O)[C@H](C)O1 [DOXORUBICIN],inhibition at 1 µM,NCI/ADR-RES [25],20%
N[C@@H](Cc1c[nH]c2ccccc12)C(=O)O [TRYPTOPHAN],IC50,[3],499 µM
O=C1c2cc(F)ccc2-n2c1nc1ccccc1c2=O,MIC,Malassezia furfur,1 µg/mL
same,MIC,Staphylococcus aureus,0.1 µg/mL
O=C1c2ccccc2-n2c1nc1ccc(Br)cc1c2=O,MIC,Malassezia furfur,4 µg/mL
same,MIC,Staphylococcus aureus,0.3 µg/mL
Cc1ccc2c(c1)C(=O)c1nc3ccccc3c(=O)n1-2,MIC,Malassezia furfur,> 120 µg/mL
same,MIC,Staphylococcus aureus,0.5 µg/mL
COc1ccc2c(c1)C(=O)c1nc3ccccc3c(=O)n1-2,MIC,Malassezia furfur,> 120 µg/mL
same,MIC,Staphylococcus aureus,2.5 µg/mL
O=C1c2ccccc2-n2c1nc1ccc(Cl)cc1c2=O,MIC,Malassezia furfur,4 µg/mL
same,MIC,Staphylococcus aureus,0.1 µg/mL
CO[C@@H]1[C@@H](OC(N)=O)[C@@H](O)[C@H](Oc2ccc3c(O)c(NC(=O)c4ccc(O)c(CC=C(C)C)c4)c(=O)oc3c2C)OC1(C)C,inhibition,Homo sapiens [26],38.5%
same,inhibition,Homo sapiens [27],45.9%
same,inhibition,Homo sapiens [28],60.2%
COc1cccc2c1C(=O)c1c(O)c3c(c(O)c1C2=O)C[C@@](O)(C(=O)CO)C[C@@H]3O[C@H]1C[C@H](N)[C@H](O)[C@H](C)O1 [DOXORUBICIN HYDROCHLORIDE],growth at 3000 µM,MCF7 [29],3.9 to 24.1%
same,IC50,MCF7 [2],0.99 to 2.63 µM
same,growth at 3000 µM,NCI/ADR-RES [30],0.44 to 78.2%
same,IC50,NCI/ADR-RES [18],> 50 µM
O=C1c2cc3ccccc3cc2-n2c1nc1ccccc1c2=O,IC50,MCF7 [2],0.27 to 12.1 µM
same,inhibition,Homo sapiens [26],30.7%
same,Activity,[1],59%
same,IC50,NCI/ADR-RES [18],0.16 to 9.82 µM
same,inhibition,Homo sapiens [28],47.2%
same,inhibition,Homo sapiens [31],43.4%
